Experimental data taken from ChEMBL document CHEMBL3352553, “Discovery of (E)-5-(benzylideneamino)-1H-benzo[d]imidazol-2(3H)-one derivatives as inhibitors for PTK6” (Bioorg Med Chem Lett, 2014).

What was measured:
HFF [1] = assay: Cytotoxicity against human foreskin fibroblast after 24 hrs by MTT assay; type: cell-based
[2] = molecular target: T1, Protein-tyrosine kinase 6 (Homo sapiens, UniProt Q13882); assay: Inhibition of PTK6 (unknown origin) expressed in HEK293 cells assessed as decrease in tyrosine phosphorylation by chemiluminescence assay; type: cell-based
T1 sequence (Q13882 whole entry): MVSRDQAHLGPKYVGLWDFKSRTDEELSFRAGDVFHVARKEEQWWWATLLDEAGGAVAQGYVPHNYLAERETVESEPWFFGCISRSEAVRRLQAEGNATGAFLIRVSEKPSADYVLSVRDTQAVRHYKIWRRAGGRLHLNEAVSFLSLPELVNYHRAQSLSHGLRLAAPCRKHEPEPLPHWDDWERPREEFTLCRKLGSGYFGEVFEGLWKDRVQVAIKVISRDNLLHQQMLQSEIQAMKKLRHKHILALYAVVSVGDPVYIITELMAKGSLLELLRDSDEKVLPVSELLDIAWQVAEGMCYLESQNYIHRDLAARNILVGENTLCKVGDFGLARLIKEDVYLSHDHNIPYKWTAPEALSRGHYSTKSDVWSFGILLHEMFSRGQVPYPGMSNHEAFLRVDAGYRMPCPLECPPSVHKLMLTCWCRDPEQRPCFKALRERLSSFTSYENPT

[3] = molecular target: Tyrosine-protein kinase Fyn (Homo sapiens, UniProt P06241); assay: Inhibition of Fyn (unknown origin) expressed in HEK293 cells assessed as decrease in phosphorylation by chemiluminescence assay; type: cell-based
Sequence of Tyrosine-protein kinase Fyn (P06241 whole entry): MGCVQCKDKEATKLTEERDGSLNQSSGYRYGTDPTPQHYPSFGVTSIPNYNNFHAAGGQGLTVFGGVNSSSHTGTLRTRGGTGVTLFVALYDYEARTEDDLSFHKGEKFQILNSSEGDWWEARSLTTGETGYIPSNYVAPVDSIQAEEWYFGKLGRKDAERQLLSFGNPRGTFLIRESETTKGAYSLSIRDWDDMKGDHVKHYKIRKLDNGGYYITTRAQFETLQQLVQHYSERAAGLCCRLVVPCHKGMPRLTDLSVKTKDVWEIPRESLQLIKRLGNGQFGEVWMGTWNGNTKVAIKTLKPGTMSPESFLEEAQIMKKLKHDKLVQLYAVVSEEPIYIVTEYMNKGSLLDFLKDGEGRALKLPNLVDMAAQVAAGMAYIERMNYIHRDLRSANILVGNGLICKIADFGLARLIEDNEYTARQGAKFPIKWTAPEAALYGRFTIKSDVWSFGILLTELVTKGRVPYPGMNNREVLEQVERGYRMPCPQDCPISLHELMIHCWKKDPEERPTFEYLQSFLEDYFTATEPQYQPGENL

[4] = molecular target: T1, Protein-tyrosine kinase 6; assay: Inhibition of GST-tagged PTK6 (unknown origin) assessed as phosphorylated tyrosines after 20 mins by ELISA
[5] = molecular target: T2, Cytoplasmic tyrosine-protein kinase BMX (Homo sapiens, UniProt P51813); assay: Inhibition of Bmx (unknown origin) expressed in HEK293 cells assessed as decrease in phosphorylation by chemiluminescence assay; type: cell-based
T2 sequence (P51813 whole entry): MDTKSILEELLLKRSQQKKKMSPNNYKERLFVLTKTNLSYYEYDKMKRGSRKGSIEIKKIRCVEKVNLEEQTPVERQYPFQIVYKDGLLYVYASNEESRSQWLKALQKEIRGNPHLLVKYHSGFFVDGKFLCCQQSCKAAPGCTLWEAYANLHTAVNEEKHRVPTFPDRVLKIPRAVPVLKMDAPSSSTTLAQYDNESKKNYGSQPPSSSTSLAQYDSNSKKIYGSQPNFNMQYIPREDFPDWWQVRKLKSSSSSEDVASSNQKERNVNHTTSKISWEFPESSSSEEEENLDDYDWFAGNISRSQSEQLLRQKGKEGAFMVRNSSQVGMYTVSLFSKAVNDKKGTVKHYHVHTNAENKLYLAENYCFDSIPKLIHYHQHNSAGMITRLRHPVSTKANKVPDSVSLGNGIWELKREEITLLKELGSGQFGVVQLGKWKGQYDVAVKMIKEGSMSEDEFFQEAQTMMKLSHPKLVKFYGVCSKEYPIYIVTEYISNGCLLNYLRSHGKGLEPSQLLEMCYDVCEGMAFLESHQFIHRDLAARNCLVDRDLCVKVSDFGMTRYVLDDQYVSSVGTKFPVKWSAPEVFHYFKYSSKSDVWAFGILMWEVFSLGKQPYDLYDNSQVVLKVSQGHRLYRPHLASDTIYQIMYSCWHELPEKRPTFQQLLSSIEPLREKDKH

[6] = molecular target: Proto-oncogene tyrosine-protein kinase Src (Homo sapiens, UniProt P12931); assay: Inhibition of Src (unknown origin) expressed in HEK293 cells assessed as decrease in phosphorylation by chemiluminescence assay; type: cell-based
Sequence of Proto-oncogene tyrosine-protein kinase Src (P12931 2-536 limits assumed): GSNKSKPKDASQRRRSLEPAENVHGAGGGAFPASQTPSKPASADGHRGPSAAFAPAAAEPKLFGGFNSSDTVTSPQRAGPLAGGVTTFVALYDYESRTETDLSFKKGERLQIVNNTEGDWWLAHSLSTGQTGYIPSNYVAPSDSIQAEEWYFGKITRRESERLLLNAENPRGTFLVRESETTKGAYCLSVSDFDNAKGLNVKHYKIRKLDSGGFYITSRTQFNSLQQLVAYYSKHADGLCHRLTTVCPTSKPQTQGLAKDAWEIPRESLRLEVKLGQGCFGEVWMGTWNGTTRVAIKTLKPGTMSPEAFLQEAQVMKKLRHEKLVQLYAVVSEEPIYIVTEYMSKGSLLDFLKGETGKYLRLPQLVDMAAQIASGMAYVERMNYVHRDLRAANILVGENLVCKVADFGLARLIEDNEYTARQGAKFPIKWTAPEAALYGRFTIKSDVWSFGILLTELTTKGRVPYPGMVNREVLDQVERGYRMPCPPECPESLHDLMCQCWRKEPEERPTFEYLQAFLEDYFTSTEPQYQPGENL

[7] = molecular target: Epidermal growth factor receptor (Homo sapiens, UniProt P00533)
Sequence of Epidermal growth factor receptor (P00533 whole entry): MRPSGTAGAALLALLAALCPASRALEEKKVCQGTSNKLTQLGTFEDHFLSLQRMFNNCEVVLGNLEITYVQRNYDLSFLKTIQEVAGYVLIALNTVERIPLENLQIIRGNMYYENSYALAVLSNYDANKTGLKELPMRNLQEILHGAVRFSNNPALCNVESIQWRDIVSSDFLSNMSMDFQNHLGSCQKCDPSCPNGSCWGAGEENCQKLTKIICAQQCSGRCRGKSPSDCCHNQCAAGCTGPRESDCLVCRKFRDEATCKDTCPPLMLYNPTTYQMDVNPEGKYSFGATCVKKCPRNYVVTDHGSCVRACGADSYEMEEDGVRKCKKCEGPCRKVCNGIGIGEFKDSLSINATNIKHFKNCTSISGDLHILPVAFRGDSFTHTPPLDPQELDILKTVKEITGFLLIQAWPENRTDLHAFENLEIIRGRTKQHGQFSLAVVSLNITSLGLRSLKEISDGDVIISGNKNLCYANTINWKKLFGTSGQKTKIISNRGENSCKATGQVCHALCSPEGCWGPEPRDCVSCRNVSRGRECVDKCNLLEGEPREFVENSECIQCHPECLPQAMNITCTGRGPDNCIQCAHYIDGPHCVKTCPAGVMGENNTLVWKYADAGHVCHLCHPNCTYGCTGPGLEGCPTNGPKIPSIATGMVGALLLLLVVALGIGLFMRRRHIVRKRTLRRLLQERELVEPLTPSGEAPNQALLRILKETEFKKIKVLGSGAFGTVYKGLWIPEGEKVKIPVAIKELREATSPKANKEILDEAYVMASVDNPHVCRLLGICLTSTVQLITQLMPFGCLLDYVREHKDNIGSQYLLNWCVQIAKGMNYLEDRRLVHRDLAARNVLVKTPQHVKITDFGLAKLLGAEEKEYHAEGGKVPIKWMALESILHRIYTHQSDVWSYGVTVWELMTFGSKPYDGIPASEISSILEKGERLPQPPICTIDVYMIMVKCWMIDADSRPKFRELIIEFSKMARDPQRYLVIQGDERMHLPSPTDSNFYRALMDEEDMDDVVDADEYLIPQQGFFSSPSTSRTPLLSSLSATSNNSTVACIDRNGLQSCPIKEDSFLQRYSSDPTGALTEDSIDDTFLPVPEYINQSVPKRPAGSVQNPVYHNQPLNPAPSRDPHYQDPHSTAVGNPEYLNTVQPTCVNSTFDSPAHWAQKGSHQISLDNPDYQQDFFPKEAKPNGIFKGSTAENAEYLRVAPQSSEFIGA
Description: Inhibition of EGFR (unknown origin) expressed in HEK293 cells assessed as decrease in phosphorylation by chemiluminescence assay

HFF [8] = assay: Cytotoxicity against human foreskin fibroblast up to 100 uM after 24 hrs by MTT assay; type: cell-based

| Compound | IC50 [2] | IC50 [4] | other results |
| --- | --- | --- | --- |
| COc1cc(Br)c(Br)c(/C=N/c2ccc3[nH]c(=O)[nH]c3c2)c1O | 1.46 µM | 0.12 µM | Activity (HFF [1]): Toxic; IC50 [3]: 38.7 µM; IC50 [5]: 38.6 µM; IC50 [6]: > 100 µM; IC50 [7]: 88.7 µM; Activity (HFF [8]): Toxic |
| COc1cc(Br)c(Br)c(/C=N/c2ccc3scnc3c2)c1O | 4.61 µM | 1.3 µM |  |
| COc1ccc(/C=N/c2ccc3[nH]c(=O)[nH]c3c2)c(O)c1 |  | > 10 µM |  |
| COc1ccc(Br)c(/C=N/c2ccc3[nH]c(=O)[nH]c3c2)c1O | 16.6 µM | 3.9 µM |  |
| CCOc1cc(Br)c(Br)c(/C=N/c2ccc3[nH]c(=O)[nH]c3c2)c1O | 1.6 µM | 0.52 µM | IC50 [3]: 68.5 µM; IC50 [5]: 42.3 µM; IC50 [6]: > 100 µM; IC50 [7]: 76.7 µM; Activity (HFF [8]): Non-toxic |
| O=c1[nH]c2ccc(/N=C/c3cc(Cl)ccc3O)cc2[nH]1 | > 100 µM | 1.41 µM |  |
| COc1cc(I)cc(/C=N/c2ccc3[nH]c(=O)[nH]c3c2)c1O | 58.1 µM | 4.98 µM |  |
| COc1cc(Br)c(Br)c(CNc2ccc3[nH]c(=O)[nH]c3c2)c1O |  | > 10 µM |  |
| CCOc1cc(Cl)c(Cl)c(/C=N/c2ccc3[nH]c(=O)[nH]c3c2)c1O | 3.48 µM | 1.29 µM |  |
| COc1ccc(Br)cc1/C=N/c1ccc2[nH]c(=O)[nH]c2c1 | > 100 µM | 17.1 µM |  |
| O=c1c(-c2ccc(O)cc2)coc2cc(O)cc(O)c12 [GENISTEIN] |  |  | IC50 [3]: 58.2 µM; IC50 [5]: 68 µM; IC50 [6]: > 100 µM |
| O=c1[nH]c2ccc(/N=C/c3ccccc3O)cc2[nH]1 | > 100 µM | 2 µM |  |
| CCOc1cc(Br)c(Br)c(/C=N/c2ccc3[nH]ccc3c2)c1O | 7.58 µM | 0.36 µM |  |
| CCOc1cc(Cl)cc(/C=N/c2ccc3[nH]c(=O)[nH]c3c2)c1O | 51.2 µM | 1.99 µM |  |
| COc1cc(Br)cc(/C=N/c2ccc3[nH]c(=O)[nH]c3c2)c1OC |  | > 10 µM |  |
| COc1cc(Br)c(Br)c(/C=N/c2ccc3[nH]ccc3c2)c1O | 3.49 µM | 0.27 µM |  |

| Compound | IC50 [2] | IC50 [4] | other results |
| --- | --- | --- | --- |
| COc1cccc(/C=N/c2ccc3[nH]c(=O)[nH]c3c2)c1O |  | > 10 µM |  |
| CCOc1cc(Br)c(Br)c(CNc2ccc3[nH]c(=O)[nH]c3c2)c1O |  | 4.79 µM |  |
| N#C/C(=C\c1c[nH]c2ccccc12)C(=O)c1ccc(O)c(O)c1 | 53.2 µM | 2.32 µM |  |
| CCOc1cccc(/C=N/c2ccc3[nH]c(=O)[nH]c3c2)c1O |  | > 10 µM |  |
| CCOc1cc(Br)c(Br)c(/C=N/c2ccc3[nH]cnc3c2)c1O | 4.71 µM | 0.13 µM |  |
| COc1cc(Cl)cc(/C=N/c2ccc3[nH]c(=O)[nH]c3c2)c1O | 74 µM | 1.68 µM |  |
| O=c1[nH]c2ccc(/N=C/c3ccc(O)cc3O)cc2[nH]1 |  | > 10 µM |  |
| COc1cc(Br)cc(/C=N/c2ccc3[nH]c(=O)[nH]c3c2)c1O | 52.4 µM | 4.73 µM |  |
| CCOc1cc(Br)cc(/C=N/c2ccc3[nH]c(=O)[nH]c3c2)c1O | 23.5 µM | 5.83 µM |  |
| CCOc1cc(Br)c(Br)c(/C=N/c2ccc3scnc3c2)c1O | 2.54 µM | 1.17 µM |  |
| O=c1[nH]c2ccc(/N=C/c3c(O)cccc3Br)cc2[nH]1 | 24.5 µM | 1.35 µM |  |
| O=c1[nH]c2ccc(/N=C/c3ccccc3)cc2[nH]1 |  | > 10 µM |  |
| COc1cc(Br)c(Br)c(/C=N/c2ccc3[nH]cnc3c2)c1O | 5.52 µM | 0.2 µM |  |
| O=c1[nH]c2ccc(/N=C/c3cc(Br)ccc3O)cc2[nH]1 | > 100 µM | 1.9 µM |  |
| O=c1[nH]c2ccc(/N=C/c3cc(Br)cc(Br)c3O)cc2[nH]1 | 49 µM | 5.6 µM |  |
| O=c1[nH]c2ccc(/N=C/c3c(O)c(Br)cc(Br)c3Br)cc2[nH]1 | 11.8 µM | 0.41 µM |  |
